# From patent US9028845B2, “Chimeric immunomodulatory compounds and methods of using the same-IV” (Dynavax Technologies Corporation, priority 2001, dated 2015)
# What was measured:
# human PBMCs = assay: Human PBMC cytokine response assay (IFN-γ and IFN-α in cell-free medium by ELISA), with or without cPLGA; type: cell-based;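 on IFN-α (pg/ml) mean: 20 µg/mL compound for 24 hours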;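 on IFN-γ (pg/ml) mean: 20 µg/mL compound for 24 hours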
# PBMCs = assay: Human PBMC proliferation assay (3H-thymidine incorporation); type: cell-based; settings: Experiment A; for mean cpm: 2 μg/ml
# CD19+ B cells = assay: Human B cell proliferation assay (3H-thymidine incorporation); settings: 2 μg/ml
# [1] = Table 24, mean of donors 28234-28237
# [2] = Table 25, mean of donors 28250-28253
# [3] = donor 28066, 20 ug/ml, 24 h, + PLGA = premixed with 100 μg/ml cPLGA
# [4] = donor 28067, 20 ug/ml, 24 h, + PLGA = premixed with 100 μg/ml cPLGA
# [5] = donor 28068, 20 ug/ml, 24 h, + PLGA = premixed with 100 μg/ml cPLGA
# [6] = mean of donors 28065-28068, 20 ug/ml, 24 h, + PLGA = premixed with 100 μg/ml cPLGA
# [7] = mean of donors 28185-28188, Table 15
# [8] = B cells, Donor 146, Experiment A
# [9] = B cells, Donor 147, Experiment A
substance,measurement,setting,value
5′-TCGTCGA-3′-HEG-5′-TCGTCGA-3′-HEG-5′-TCGTCGA-3′ [Compound C-21],IFN-α,"human PBMCs; Table 9, donor 28089",56 pg/mL
same,IFN-γ,"human PBMCs; Table 9, donor 28089",61 pg/mL
same,IFN-α,"human PBMCs; Table 9, donor 28090",157 pg/mL
same,IFN-γ,"human PBMCs; Table 9, donor 28090",68 pg/mL
same,IFN-α,"human PBMCs; Table 9, donor 28098",286 pg/mL
same,IFN-γ,"human PBMCs; Table 9, donor 28098",218 pg/mL
same,IFN-α,"human PBMCs; Table 9, donor 28099",466 pg/mL
same,IFN-γ,"human PBMCs; Table 9, donor 28099",124 pg/mL
same,IFN-α mean,"human PBMCs; Table 9, mean of donors",241 pg/mL
same,IFN-γ mean,"human PBMCs; Table 9, mean of donors",118 pg/mL
same,IFN-α,"human PBMCs; Table 10, donor 28042",57 pg/mL
same,IFN-γ,"human PBMCs; Table 10, donor 28042",790 pg/mL
same,IFN-α,"human PBMCs; Table 10, donor 28043",72 pg/mL
same,IFN-γ,"human PBMCs; Table 10, donor 28043",1519 pg/mL
same,IFN-α,"human PBMCs; Table 10, donor 28044",79 pg/mL
same,IFN-γ,"human PBMCs; Table 10, donor 28044",1198 pg/mL
same,IFN-α,"human PBMCs; Table 10, donor 28045",15 pg/mL
same,IFN-γ,"human PBMCs; Table 10, donor 28045",177 pg/mL
same,IFN-α mean,"human PBMCs; Table 10, mean of donors",56 pg/mL
same,IFN-γ mean,"human PBMCs; Table 10, mean of donors",921 pg/mL
same,IFN-α,"human PBMCs; Table 11, donor 28042",146 pg/mL
same,IFN-γ,"human PBMCs; Table 11, donor 28042",572 pg/mL
same,IFN-α,"human PBMCs; Table 11, donor 28043",94 pg/mL
same,IFN-γ,"human PBMCs; Table 11, donor 28043",460 pg/mL
same,IFN-α,"human PBMCs; Table 11, donor 28044",191 pg/mL
same,IFN-γ,"human PBMCs; Table 11, donor 28044",4000 pg/mL
same,IFN-α,"human PBMCs; Table 11, donor 28045",349 pg/mL
same,IFN-γ,"human PBMCs; Table 11, donor 28045",1644 pg/mL
same,IFN-α mean,"human PBMCs; Table 11, mean of donors",195 pg/mL
same,IFN-γ mean,"human PBMCs; Table 11, mean of donors",1669 pg/mL
same,IFN-α,"human PBMCs; Table 24, donor 28234",16 pg/mL
same,IFN-γ,"human PBMCs; Table 24, donor 28234",4 pg/mL
same,IFN-α,"human PBMCs; Table 24, donor 28235",16 pg/mL
same,IFN-γ,"human PBMCs; Table 24, donor 28235",107 pg/mL
same,IFN-α,"human PBMCs; Table 24, donor 28236",73 pg/mL
same,IFN-γ,"human PBMCs; Table 24, donor 28236",308 pg/mL
same,IFN-α,"human PBMCs; Table 24, donor 28237",678 pg/mL
same,IFN-γ,"human PBMCs; Table 24, donor 28237",1645 pg/mL
same,IFN-α mean,human PBMCs; [1],196 pg/mL
same,IFN-γ mean,human PBMCs; [1],516 pg/mL
same,IFN-a,"human PBMCs; Table 25, donor 28250",31 pg/mL
same,IFN-g,"human PBMCs; Table 25, donor 28250, polynucleotides/spacers at amounts equivalent to the CIC, spacers alone 9 uM",122 pg/mL
same,IFN-a,"human PBMCs; Table 25, donor 28251",69 pg/mL
same,IFN-g,"human PBMCs; Table 25, donor 28251",51 pg/mL
same,IFN-a,"human PBMCs; Table 25, donor 28252",41 pg/mL
same,IFN-g,"human PBMCs; Table 25, donor 28252",155 pg/mL
same,IFN-a,"human PBMCs; Table 25, donor 28253",264 pg/mL
same,IFN-g,"human PBMCs; Table 25, donor 28253",203 pg/mL
same,IFN-a mean,human PBMCs; [2],101 pg/mL
same,IFN-g mean,human PBMCs; [2],133 pg/mL
same,IFN-γ (pg/ml) 28065,"human PBMCs; donor 28065 (high background), 20 ug/ml, 24 h, + PLGA = premixed with 100 μg/ml cPLGA, 1000 = outside assay limits",653 pg/mL
same,IFN-α (pg/ml) 28065,"human PBMCs; donor 28065, 20 ug/ml, 24 h, + PLGA = premixed with 100 μg/ml cPLGA",227 pg/mL
same,IFN-α (pg/ml) 28066,human PBMCs; [3],24 pg/mL
same,IFN-γ (pg/ml) 28066,human PBMCs; [3],16 pg/mL
same,IFN-α (pg/ml) 28067,human PBMCs; [4],183 pg/mL
same,IFN-γ (pg/ml) 28067,human PBMCs; [4],24 pg/mL
same,IFN-α (pg/ml) 28068,human PBMCs; [5],769 pg/mL
same,IFN-γ (pg/ml) 28068,human PBMCs; [5],960 pg/mL
same,IFN-a,"human PBMCs; donor 28185, Table 15",443 pg/mL
same,IFN-g,"human PBMCs; donor 28185, Table 15",244 pg/mL
same,IFN-a,"human PBMCs; donor 28186, Table 15",64 pg/mL
same,IFN-g,"human PBMCs; donor 28186, Table 15",37 pg/mL
same,IFN-a,"human PBMCs; donor 28187, Table 15",1 pg/mL
same,IFN-g,"human PBMCs; donor 28187, Table 15",125 pg/mL
same,IFN-a,"human PBMCs; donor 28188, Table 15",4 pg/mL
same,IFN-g,"human PBMCs; donor 28188, Table 15",7 pg/mL
same,IFN-α (pg/ml) mean,human PBMCs; [6],300 pg/mL
same,IFN-γ (pg/ml) mean,human PBMCs; [6],413 pg/mL
same,IFN-a (pg/ml) mean,human PBMCs; [7],128 pg/mL
same,IFN-g (pg/ml) mean,human PBMCs; [7],103 pg/mL
same,IFN-a (pg/ml) ×2,"human PBMCs; mean ×2, Table 15",256 pg/mL
same,IFN-g (pg/ml) ×4,"human PBMCs; mean ×4, Table 15",413 pg/mL
same,"immunomodulatory activity (IFN-γ / IFN-α secretion), in words",human PBMCs; used alone (no cPLGA),more active than other CG-containing CICs
same,cpm1,"PBMCs; Donor 146, 2 μg/ml",30338 cpm
same,cpm2,"PBMCs; Donor 146, 2 μg/ml",22685 cpm
same,cpm3,"PBMCs; Donor 146, 2 μg/ml",22383 cpm
same,mean cpm,PBMCs; Donor 146 mean,25135 cpm
same,cpm1,"PBMCs; Donor 147, 2 μg/ml",28819 cpm
same,cpm2,"PBMCs; Donor 147, 2 μg/ml",530 cpm
same,cpm3,"PBMCs; Donor 147, 2 μg/ml",37088 cpm
same,mean cpm,PBMCs; Donor 147 mean,22146 cpm
same,mean of both,"PBMCs; mean of Donors 146 and 147, 2 μg/ml",23641 cpm
same,"B cell proliferation, in words",CD19+ B cells; 48 h plus 8 h 3H-thymidine pulse,cause B cells to proliferate
same,cpm1,CD19+ B cells; [8],28467 cpm
same,cpm2,CD19+ B cells; [8],16074 cpm
same,cpm3,CD19+ B cells; [8],19258 cpm
same,mean cpm,"CD19+ B cells; B cells, Donor 146 mean, Experiment A",21266 cpm
same,cpm1,CD19+ B cells; [9],17604 cpm
same,cpm2,CD19+ B cells; [9],18851 cpm
same,cpm3,CD19+ B cells; [9],19887 cpm
same,mean cpm,"CD19+ B cells; B cells, Donor 147 mean, Experiment A",18781 cpm
same,mean of both,"CD19+ B cells; B cells, mean of Donors 146 and 147, Experiment A",20024 cpm
